Assay results: patent publication US6552080B1, “Fungicidal compounds having a fluorovinyl-or fluoropropenyl-oxyphenyloxime moiety and process for the preparation thereof” (Korea Research Institute of Chemical Technology, priority 1999, dated 2003)

What follows are molecules tested on Rhizoctonia solani AG-1 (assay: Fungicidal activity against Rice Sheath Blight (RSB) disease). Details: Rice Sheath Blight; concentration 50 ppm.

First: CNC(=O)C(=COC)c1ccccc1CON=C(C)c1cccc(OC(F)=Cc2ccc3c(c2)OCO3)c1 [Compound 63]
Second: CCc1ccc(C=C(F)Oc2cccc(C(C)=NOCc3ccccc3C(=COC)C(=O)NC)c2)cc1 [Compound 59]
The “RSB (Fungicidal Activities, C.V.)” value of the first is lower: 11% for the first, 47% for the second.

Compared with `CNC(=O)C(=NOC)c1ccccc1CON=Cc1cccc(OC(F)=Cc2cccc(OC)c2)c1` [Compound 35], `COC=C(C(=O)OC)c1ccccc1CON=Cc1cccc(OC(F)=Cc2ccc(Cl)cc2)c1` [Compound 14] is higher in “RSB (Fungicidal Activities, C.V.)” value: 52% for the first, 75% for the second.

`COC=C(C(=O)OC)c1ccccc1CON=C(C)c1cccc(OC(F)=Cc2ccc(C)cc2)c1` [Compound 42] was tested, and the “RSB (Fungicidal Activities, C.V.)” value was 70%.

The molecules below were run on Puccinia recondita (assay: Fungicidal activity against Wheat Leaf Rust (WLR) disease). Details: Wheat Leaf Rust; concentration 2 ppm.
Type: in vivo

Compared with `CNC(=O)C(=NOC)c1ccccc1CON=Cc1cccc(OC(F)=Cc2cccc(OC)c2)c1` [Compound 35], `COC=C(C(=O)OC)c1ccccc1CON=Cc1cccc(OC(F)=Cc2ccc(Cl)cc2)c1` [Compound 14] is higher in “WLR (Fungicidal Activities, C.V.)” value: 83% for the first, 96% for the second.

With `COC=C(C(=O)OC)c1ccccc1CON=C(C)c1cccc(OC(F)=Cc2ccc(C)cc2)c1` [Compound 42] the “WLR (Fungicidal Activities, C.V.)” value was 98%.

Same assay, conditions: Wheat Leaf Rust; concentration 10 ppm

Compared with `COC=C(C(=O)OC)c1ccccc1CON=C(C)c1cccc(OC(F)=Cc2ccc(C)cc2)c1` [Compound 42], `COC=C(C(=O)OC)c1ccccc1CON=Cc1cccc(OC(F)=Cc2ccc(Cl)cc2)c1` [Compound 14] is lower in “WLR (Fungicidal Activities, C.V.)” value: 100% for the first, 99% for the second.

Same assay, conditions: Wheat Leaf Rust; concentration 50 ppm

Going from `CNC(=O)C(=COC)c1ccccc1CON=C(C)c1cccc(OC(F)=Cc2ccc3c(c2)OCO3)c1` [Compound 63] to `CCc1ccc(C=C(F)Oc2cccc(C(C)=NOCc3ccccc3C(=COC)C(=O)NC)c2)cc1` [Compound 59], the “WLR (Fungicidal Activities, C.V.)” value falls from 90% to 73%.

Going from `CNC(=O)C(=NOC)c1ccccc1CON=Cc1cccc(OC(F)=Cc2cccc(OC)c2)c1` [Compound 35] to `COC=C(C(=O)OC)c1ccccc1CON=Cc1cccc(OC(F)=Cc2ccc(Cl)cc2)c1` [Compound 14], the “WLR (Fungicidal Activities, C.V.)” value rises from 97% to 100%.

In the case of `COC=C(C(=O)OC)c1ccccc1CON=C(C)c1cccc(OC(F)=Cc2ccc(C)cc2)c1` [Compound 42], the “WLR (Fungicidal Activities, C.V.)” value is reported as 100%.

Each molecule was assayed on Phytophthora infestans (assay: not given). Details: Tomato Late Blight; concentration 50 ppm.
Type: in vivo

`CNC(=O)C(=COC)c1ccccc1CON=C(C)c1cccc(OC(F)=Cc2ccc3c(c2)OCO3)c1` [Compound 63] and `CCc1ccc(C=C(F)Oc2cccc(C(C)=NOCc3ccccc3C(=COC)C(=O)NC)c2)cc1` [Compound 59] are the same in “TLB (Fungicidal Activities, C.V.)” value: 0% for the first, 0% for the second.

First: CNC(=O)C(=NOC)c1ccccc1CON=Cc1cccc(OC(F)=Cc2cccc(OC)c2)c1 [Compound 35]
Second: COC=C(C(=O)OC)c1ccccc1CON=Cc1cccc(OC(F)=Cc2ccc(Cl)cc2)c1 [Compound 14]
The “TLB (Fungicidal Activities, C.V.)” value of the first is lower: 0% for the first, 12% for the second.

`COC=C(C(=O)OC)c1ccccc1CON=C(C)c1cccc(OC(F)=Cc2ccc(C)cc2)c1` [Compound 42] was tested, and the “TLB (Fungicidal Activities, C.V.)” value was 97%.

Each molecule was assayed on Botrytis cinerae (assay: Fungicidal activity against Cucumber Gray Mold Rot (CGM) disease). Details: Cucumber Gray Mold Rot; concentration 50 ppm.
Type: in vivo
Protocol: Botrytis cinerae, which was isolated from cucumber infected thereby, was inoculated on a PDA agar medium and cultured under a 12L/12D cycle at 25° C. for 15 days to form spore. The spores were scraped, filtered through a gauze and then suspended in potato dextrose liquid medium at a concentration of 1×10^6 spore/ml. The spore suspension was sprayed on a cucumber plant having one leaf. The cucumber plant was held in a humidified room at 20° C. for 3 days. L.A. on a leaf was measured to calculate an C.V.

First: CNC(=O)C(=COC)c1ccccc1CON=C(C)c1cccc(OC(F)=Cc2ccc3c(c2)OCO3)c1 [Compound 63]
Second: CCc1ccc(C=C(F)Oc2cccc(C(C)=NOCc3ccccc3C(=COC)C(=O)NC)c2)cc1 [Compound 59]
The “CGM (Fungicidal Activities, C.V.)” value of the first is higher: 33% for the first, 0% for the second.

Compared with `CNC(=O)C(=NOC)c1ccccc1CON=Cc1cccc(OC(F)=Cc2cccc(OC)c2)c1` [Compound 35], `COC=C(C(=O)OC)c1ccccc1CON=Cc1cccc(OC(F)=Cc2ccc(Cl)cc2)c1` [Compound 14] is higher in “CGM (Fungicidal Activities, C.V.)” value: 0% for the first, 7% for the second.

With `COC=C(C(=O)OC)c1ccccc1CON=C(C)c1cccc(OC(F)=Cc2ccc(C)cc2)c1` [Compound 42] the “CGM (Fungicidal Activities, C.V.)” value was 64%.

Each molecule was assayed on Erysiphae graminis (assay: Fungicidal activity against Barley Powdery Mildew (BPM) disease). Details: Barley Powdery Mildew; concentration 2 ppm.
Type: in vivo

First: CNC(=O)C(=NOC)c1ccccc1CON=Cc1cccc(OC(F)=Cc2cccc(OC)c2)c1 [Compound 35]
Second: COC=C(C(=O)OC)c1ccccc1CON=Cc1cccc(OC(F)=Cc2ccc(Cl)cc2)c1 [Compound 14]
The “BPM (Fungicidal Activities, C.V.)” value of the first is lower: 0% for the first, 99% for the second.

In the case of `COC=C(C(=O)OC)c1ccccc1CON=C(C)c1cccc(OC(F)=Cc2ccc(C)cc2)c1` [Compound 42], the “BPM (Fungicidal Activities, C.V.)” value is reported as 100%.

Same assay, conditions: Barley Powdery Mildew; concentration 10 ppm

`COC=C(C(=O)OC)c1ccccc1CON=C(C)c1cccc(OC(F)=Cc2ccc(C)cc2)c1` [Compound 42] and `COC=C(C(=O)OC)c1ccccc1CON=Cc1cccc(OC(F)=Cc2ccc(Cl)cc2)c1` [Compound 14] are the same in “BPM (Fungicidal Activities, C.V.)” value: 100% for the first, 100% for the second.

Same assay, conditions: Barley Powdery Mildew; concentration 50 ppm

Compared with `CNC(=O)C(=COC)c1ccccc1CON=C(C)c1cccc(OC(F)=Cc2ccc3c(c2)OCO3)c1` [Compound 63], `CCc1ccc(C=C(F)Oc2cccc(C(C)=NOCc3ccccc3C(=COC)C(=O)NC)c2)cc1` [Compound 59] is lower in “BPM (Fungicidal Activities, C.V.)” value: 97% for the first, 91% for the second.

`CNC(=O)C(=NOC)c1ccccc1CON=Cc1cccc(OC(F)=Cc2cccc(OC)c2)c1` [Compound 35] and `COC=C(C(=O)OC)c1ccccc1CON=Cc1cccc(OC(F)=Cc2ccc(Cl)cc2)c1` [Compound 14] are the same in “BPM (Fungicidal Activities, C.V.)” value: 100% for the first, 100% for the second.

In the case of `COC=C(C(=O)OC)c1ccccc1CON=C(C)c1cccc(OC(F)=Cc2ccc(C)cc2)c1` [Compound 42], the “BPM (Fungicidal Activities, C.V.)” value is reported as 100%.

Each molecule was assayed on Pyricularia oryzae Carvara KA301 (assay: not given). Details: Rice Blast; concentration 2 ppm.
Type: in vivo

Compared with `CNC(=O)C(=NOC)c1ccccc1CON=Cc1cccc(OC(F)=Cc2cccc(OC)c2)c1` [Compound 35], `COC=C(C(=O)OC)c1ccccc1CON=Cc1cccc(OC(F)=Cc2ccc(Cl)cc2)c1` [Compound 14] is lower in “RCV (Fungicidal Activities, C.V.)” value: 97% for the first, 58% for the second.

For `COC=C(C(=O)OC)c1ccccc1CON=C(C)c1cccc(OC(F)=Cc2ccc(C)cc2)c1` [Compound 42], the “RCV (Fungicidal Activities, C.V.)” value was 58%.

Same assay, conditions: Rice Blast; concentration 10 ppm

First: COC=C(C(=O)OC)c1ccccc1CON=C(C)c1cccc(OC(F)=Cc2ccc(C)cc2)c1 [Compound 42]
Second: COC=C(C(=O)OC)c1ccccc1CON=Cc1cccc(OC(F)=Cc2ccc(Cl)cc2)c1 [Compound 14]
The “RCV (Fungicidal Activities, C.V.)” value of the first is higher: 96% for the first, 86% for the second.

Same assay, conditions: Rice Blast; concentration 50 ppm

Compared with `CNC(=O)C(=COC)c1ccccc1CON=C(C)c1cccc(OC(F)=Cc2ccc3c(c2)OCO3)c1` [Compound 63], `CCc1ccc(C=C(F)Oc2cccc(C(C)=NOCc3ccccc3C(=COC)C(=O)NC)c2)cc1` [Compound 59] is higher in “RCV (Fungicidal Activities, C.V.)” value: 96% for the first, 100% for the second.

`CNC(=O)C(=NOC)c1ccccc1CON=Cc1cccc(OC(F)=Cc2cccc(OC)c2)c1` [Compound 35] and `COC=C(C(=O)OC)c1ccccc1CON=Cc1cccc(OC(F)=Cc2ccc(Cl)cc2)c1` [Compound 14] are the same in “RCV (Fungicidal Activities, C.V.)” value: 100% for the first, 100% for the second.

In the case of `COC=C(C(=O)OC)c1ccccc1CON=C(C)c1cccc(OC(F)=Cc2ccc(C)cc2)c1` [Compound 42], the “RCV (Fungicidal Activities, C.V.)” value is reported as 100%.
